Reference: patent US20230172204A1 (BASF SE, priority 2020, published 2023)

Assays:
[1] = tested on: Phakopsora pachyrhizi (F129L); experiment: Protective control of soybean rust on soybeans (PHAKPA P6); assay type: in vivo; details: for % PHAKPA (F129L) Disease level P6 at 4 ppm: protective P6, 4 ppm; for % PHAKPA (F129L) Disease level P6 at 4 ppm / % PHAKPA (F129L) Disease level P6 at 16 ppm: soybean rust F129L; for % PHAKPA (F129L) Disease level P6 at 16 ppm: protective P6, 16 ppm
[2] = tested on: Phakopsora pachyrhizi (F129L); experiment: Protective control of soybean rust on soybeans (PHAKPA P2); assay type: in vivo; details: for % PHAKPA (F129L) Disease level P2 at 4 ppm: protective P2, 4 ppm; for % PHAKPA (F129L) Disease level P2 at 4 ppm / % PHAKPA (F129L) Disease level P2 at 16 ppm: soybean rust F129L; for % PHAKPA (F129L) Disease level P2 at 16 ppm: protective P2, 16 ppm
[3] = P6 protective, % diseased leaf area
[4] = P2 protective, % diseased leaf area

| SMILES | PHAKPA (F129L) Disease level (%) P6 at 16 ppm ([1]; P6 protective, 16 ppm, % diseased leaf area) [%] | % PHAKPA (F129L) Disease level P6 at 4 ppm [1] [%] | % PHAKPA (F129L) Disease level P6 at 16 ppm [1] [%] | PHAKPA (F129L) Disease level (%) P2 at 16 ppm ([2]; P2 protective, 16 ppm, % diseased leaf area) [%] | % PHAKPA (F129L) Disease level P2 at 4 ppm [2] [%] | % PHAKPA (F129L) Disease level P2 at 16 ppm [2] [%] | PHAKPA (F129L) Disease level (%) P6 at 4 ppm [1, 3] [%] | PHAKPA (F129L) Disease level (%) P2 at 4 ppm [2, 4] [%] |
| --- | --- | --- | --- | --- | --- | --- | --- | --- |
| CO/N=C(/C(=O)OC)c1cccc(C)c1CO/N=C(\C)c1ccc(C(F)(F)F)cc1 [Ex. 37] | 0 | 40 | 2 | 0 | 40 | 3 |  |  |
| CNC(=O)/C(=N/OC)c1cccc(C)c1CO/N=C(\C)c1cccc(F)c1F [compound 178] |  | 2 | 0 |  | 6 | 0 |  |  |
| CNC(=O)/C(=N/OC)c1cccc(C)c1CO/N=C(\COC)c1ccccc1 [compound 295] |  | 11 | 0 |  | 2 | 0 |  |  |
| CNC(=O)/C(=N/OC)c1ccccc1CO/N=C(\C)c1cc(Cl)ccc1Cl [reference compound] |  |  |  |  |  |  | 97 | 87 |
| CCc1ccc(/C(C)=N/OCc2c(C)cccc2/C(=N\OC)C(=O)OC)cc1 [compound 183] |  | 38 | 2 |  | 16 | 0 |  |  |
| CO/C=C(/C(=O)OC)c1cccc(C)c1CO/N=C(\C)c1ccc(F)c(F)c1OC(F)(F)F [compound 450] |  | 4 | 1 |  | 3 | 1 |  |  |
| CO/N=C(/C(=O)OC)c1cccc(C)c1CO/N=C(\C)c1ccc(C#N)cc1C(F)(F)F [compound 423] |  | 93 | 53 |  | 100 | 57 |  |  |
| COC/C(=N\OCc1c(C)cccc1/C(=N\OC)C(=O)OC)c1cccc(C(F)(F)F)c1 [compound 191] |  | 83 | 22 |  | 77 | 2 |  |  |
| CNC(=O)/C(=N/OC)c1cccc(C)c1CO/N=C(\C)c1cccc(OC(F)(F)F)c1 [compound 29] |  |  | 0 |  |  | 0 |  |  |
| C=Cc1ccccc1/C(C)=N/OCc1c(C)cccc1/C(=N\OC)C(=O)NC [compound 211] |  | 100 | 77 |  | 100 | 43 |  |  |
| CO/N=C(/C(=O)OC)c1cccc(C)c1CO/N=C(\C)c1ccc(-c2cc(C)on2)cc1 [compound 63] |  | 93 | 77 |  | 90 | 77 |  |  |
| CC/C(=N\OCc1c(C)cccc1/C(=N\OC)C(=O)NC)c1cccc(C(F)(F)F)c1 [Ex. 188] |  | 11 | 0 |  | 1 | 0 | 30 | 2 |
| CNC(=O)/C(=N/OC)c1cccc(C)c1CO/N=C(\C)c1ccccc1COC [compound 277] |  | 100 | 100 |  | 100 | 60 |  |  |
| CNC(=O)/C(=N/OC)c1cccc(C)c1CO/N=C(\C)c1cc(Cl)cc(Cl)c1 [Ex. 4, (2E)-2-[2-[[(E)-1-(3,5-dichlorophenyl)ethylideneamino]oxymethyl]-3-methyl-phenyl]-2-methoxyimino-N-methyl-acetamide] |  | 13 | 1 |  | 2 | 0 | 17 | 2 |
| CNC(=O)/C(=N/OC)c1cccc(C)c1CO/N=C(\C)c1ccccc1C(C)(F)F [compound 372] |  | 85 | 16 |  | 85 | 26 |  |  |
| C#Cc1cc(F)c(F)c(/C(C)=N/OCc2c(C)cccc2/C(=N\OC)C(=O)NC)c1 [compound 243] |  | 37 | 1 |  | 4 | 0 |  |  |
| CNC(=O)/C(=N/OC)c1cccc(C)c1CO/N=C(\C)c1cc(F)cc(C(F)(F)F)c1 [compound 50] |  | 6 | 0 |  | 2 | 1 |  |  |
| CO/N=C(/C(=O)OC)c1cccc(C)c1CO/N=C(\C)c1ccc(-c2ccc(F)cc2)cc1C(F)(F)F [compound 425] |  | 53 | 40 |  | 27 | 28 |  |  |
